For experiment [1], the target named is Bcl-2-related protein A1 (Homo sapiens) (UniProt Q16548). As to the kind of experiment: Bfl1 and BclB peptide interaction inhibitors, dose response, biochemical, powder compounds, wildtype and mutant Bfl1, panel (AID 504598). The settings on record: Bfl1/BclB peptide binding displacement assay; for percent span: stronger effect = higher value.
In experiment [2] the target is Bcl-2-like protein 10 (Homo sapiens) (UniProt Q9HD36). The description is as above. Particulars: Bfl1/BclB peptide binding displacement assay, BclB wildtype; for percent span: stronger effect = higher value.
Chain of Bcl-2-like protein 10 (Homo sapiens) (Q9HD36 whole entry, looked up): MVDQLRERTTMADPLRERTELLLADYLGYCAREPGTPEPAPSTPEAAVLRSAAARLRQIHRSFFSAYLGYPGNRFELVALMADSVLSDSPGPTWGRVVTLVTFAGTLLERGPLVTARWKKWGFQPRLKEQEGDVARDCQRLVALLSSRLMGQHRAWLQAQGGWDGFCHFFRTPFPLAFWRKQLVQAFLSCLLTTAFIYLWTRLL
The mark [3] stands for this setting: Bfl1 wildtype, deteriorated Bfl1 protein.

Activity calls are given as the source filed them. How the calls were made is not given here.

Chain of Bcl-2-related protein A1 (Homo sapiens) (Q16548 whole entry, looked up): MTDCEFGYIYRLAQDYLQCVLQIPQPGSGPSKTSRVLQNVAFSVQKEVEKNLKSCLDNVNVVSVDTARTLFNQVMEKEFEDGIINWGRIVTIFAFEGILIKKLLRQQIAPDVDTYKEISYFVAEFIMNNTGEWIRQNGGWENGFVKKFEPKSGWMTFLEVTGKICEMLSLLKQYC

On to `Cc1ccc(-c2cc(-c3ccc(C)o3)nc(N)c2C#N)cc1`, for which the percent span result in experiment [1] (Bfl1 mutant), in experiment [1] (Bfl1 wildtype) and in experiment [2] was “inactive” each time. Besides, the EC50 (usually the concentration giving half of the maximal effect) in experiment [1] (setting [3]) was determined as 1260 nM.

Take `CNC(CC(=O)c1ccc([N+](=O)[O-])cc1)C(Cl)(Cl)Cl` (stereo unspecified): the percent span entry in experiment [1] (Bfl1 mutant), in experiment [1] (Bfl1 wildtype) and in experiment [2] was “inactive” throughout. In addition, the EC50 in experiment [1] (setting [3]) is 31.4 nM.

For `CNC1CCC(Br)CC(C(=O)/C=C/c2cccc(OC)c2OC)C1=O` (stereo unspecified), the EC50 entry in experiment [1] (Bfl1 mutant) was “inactive”. The EC50 is 9210 nM in experiment [1] (Bfl1 wildtype) and 18400 nM in experiment [1] (setting [3]). The percent span result in experiment [2] is “inactive”.

As to `Cc1cc(N)ccc1N1CCCC1`, the percent span result in experiment [1] (Bfl1 mutant) and in experiment [1] (Bfl1 wildtype) was “inactive” each time. Besides, the EC50 was 1860 nM in experiment [1] (setting [3]) and > 141000 nM (inactive) in experiment [2].

`Cc1ccc(-c2cc(-c3ccc(F)cc3)c(C#N)c(N)n2)o1`: the percent span result in experiment [1] (Bfl1 mutant), in experiment [1] (Bfl1 wildtype) and in experiment [2] was “inactive” throughout. For the same compound, the EC50 in experiment [1] (setting [3]) worked out at 1530 nM.

With `COc1cccc(-c2cc(C(F)(F)F)nc(S(C)(=O)=O)n2)c1`, the percent span result in experiment [1] (Bfl1 mutant), in experiment [1] (Bfl1 wildtype) and in experiment [2] was “inactive” throughout. The compound further displayed an EC50 in experiment [1] (setting [3]) of 259 nM.

With `O=C(Nc1ccc2nc(-c3ccco3)c(-c3ccco3)nc2c1)N1CCCCCC1`, the percent span result in experiment [1] (Bfl1 mutant) and in experiment [1] (Bfl1 wildtype) was “inactive” in each case. The values for the EC50 in experiment [1] (setting [3]) and in experiment [2] were 344 nM and 13600 nM, respectively.

Consider `Oc1ccc(NCc2ccccc2OCc2ccccc2)cc1`, for which the percent span entry in experiment [1] (Bfl1 mutant), in experiment [1] (Bfl1 wildtype) and in experiment [2] was “inactive” in each case. In experiment [1] (setting [3]), this compound displayed an EC50 of 619 nM.

In the case of `Cc1ccc(C)n1-c1ccc(Br)cc1C(=O)O`, the percent span result in experiment [1] (Bfl1 mutant), in experiment [1] (Bfl1 wildtype) and in experiment [2] was “inactive” throughout.

On to `Cc1cc(-c2cc(-c3ccc(Cl)cc3)nc(N)c2C#N)co1`, for which the percent span result in experiment [1] (Bfl1 mutant) and in experiment [2] was “inactive” in each case. In addition, the EC50 in experiment [1] (Bfl1 wildtype) is > 104000 nM (inactive); in experiment [1] (setting [3]), 1060 nM.

On to `O=C1NC(=O)C2(Cc3c(nc4ccccn4c3=O)N3CCCCCC32)C(=O)N1Cc1ccccc1` (stereo unspecified), for which the percent span entry in experiment [1] (Bfl1 mutant), in experiment [1] (Bfl1 wildtype) and in experiment [2] was “inactive” throughout.

On to `CC(=O)c1ccc(NC(=O)c2ccc3nc(-c4ccco4)c(-c4ccco4)nc3c2)cc1`, for which the percent span entry in experiment [1] (Bfl1 mutant) and in experiment [1] (Bfl1 wildtype) was “inactive” in each case. The same compound came in with a concentration for a half-maximal effect (EC50) in experiment [1] (setting [3]) of 2120 nM. The EC50 entry in experiment [2] is “inactive”.

As to `Cc1cc(C)nc(/N=C(/N)Nc2cccc(N)c2)n1`, the percent span result in experiment [1] (Bfl1 mutant), in experiment [1] (Bfl1 wildtype) and in experiment [2] was “inactive” each time.

As to `CCOC(=O)CCS(=O)(=O)c1nc(-c2ccccc2)cc(C(F)(F)F)n1`, the percent span result in experiment [1] (Bfl1 mutant), in experiment [1] (Bfl1 wildtype) and in experiment [2] was “inactive” throughout.

With `CN1CCN(C2=C(Cl)C(=O)N(c3ccc(Cl)c(Cl)c3)C2=O)CC1`, the percent span entry in experiment [1] (Bfl1 mutant), in experiment [1] (Bfl1 wildtype) and in experiment [2] was “inactive” throughout.

In the case of `O=C1C(Cl)=C(N2CCN(c3ccccc3[N+](=O)[O-])CC2)C(=O)c2ccccc21`, the percent span result in experiment [1] (Bfl1 mutant), in experiment [1] (Bfl1 wildtype) and in experiment [2] was “inactive” in each case. This compound registered an EC50 in experiment [1] (setting [3]) of 420 nM.

Take `CCN1C(=O)/C(=C\C=C2/C=CC=CN2CC)SC1=S`: the percent span entry in experiment [1] (Bfl1 mutant), in experiment [1] (Bfl1 wildtype) and in experiment [2] was “inactive” throughout. In experiment [1] (setting [3]), this compound had a concentration giving a half-maximal response (EC50) of 483 nM.

With `Cc1ccc(C=NNC(=O)CSc2nnc(-c3ccc(Cl)cc3)n2-c2ccccc2)o1`, the percent span entry in experiment [1] (Bfl1 mutant) and in experiment [1] (Bfl1 wildtype) was “inactive” in each case. Further, the EC50 in experiment [2] was 2300 nM.

With `CN1CCN(C2=C(Cl)C(=O)N(c3cccc(Cl)c3)C2=O)CC1`, the percent span entry in experiment [1] (Bfl1 mutant), in experiment [1] (Bfl1 wildtype) and in experiment [2] was “inactive” each time.

Turning to `CC(C)c1nnc(NC(=O)CCS(=O)(=O)c2nc(-c3cccs3)cc(C(F)(F)F)n2)s1`, the percent span entry in experiment [1] (Bfl1 mutant), in experiment [1] (Bfl1 wildtype) and in experiment [2] was “inactive” throughout.

On to `CCOC(=O)CS(=O)(=O)c1nc(-c2ccccc2)cc(C(F)(F)F)n1`, for which the percent span entry in experiment [1] (Bfl1 mutant), in experiment [1] (Bfl1 wildtype) and in experiment [2] was “inactive” in each case. For the same compound, the EC50 in experiment [1] (setting [3]) was 365 nM.

Source of the values: PubChem BioAssay AID504598 (NMMLSC, 2011).
